CC[C@@]1(O)C(=O)OCc2c1cc1n(c2=O)Cc2cc3ccccc3nc2-1
Conditions	solubility (mole fraction)
in chloroform, 275.76 K	0.000222
in chloroform, 279.07 K	0.000246
in chloroform, 282.38 K	0.000272
in chloroform, 285.02 K	0.000288
in chloroform, 287.55 K	0.000308
in chloroform, 291.19 K	0.000332
in chloroform, 294.18 K	0.000354
in chloroform, 297.25 K	0.000375
in chloroform, 300.57 K	0.000404
in chloroform, 303.1 K	0.000421
in chloroform, 305.96 K	0.000441
in chloroform, 308.51 K	0.000465
in chloroform, 311.59 K	0.000489
in chloroform, 315.12 K	0.000513
in chloroform, 318.31 K	0.000544
in chloroform, 322.39 K	0.000575
in chloroform, 326.25 K	0.000613
in ethanol, 277.98 K	9.03e-06
in ethanol, 281.62 K	1.08e-05
in ethanol, 284.67 K	1.25e-05
in ethanol, 287.95 K	1.39e-05
in ethanol, 291 K	1.6e-05
in ethanol, 294.63 K	1.78e-05
in ethanol, 297.81 K	2.01e-05
in ethanol, 301.09 K	2.24e-05
in ethanol, 304.26 K	2.46e-05
in ethanol, 307.54 K	2.76e-05
in ethanol, 310.47 K	3.06e-05
in ethanol, 313.63 K	3.33e-05
in ethanol, 316.57 K	3.68e-05
in ethanol, 319.26 K	4.01e-05
in ethanol, 321.7 K	4.31e-05
in ethanol, 324.43 K	4.64e-05
in ethanol, 326.3 K	4.91e-05
in methanol, 277.52 K	1.27e-05
in methanol, 280.45 K	1.43e-05
in methanol, 283.37 K	1.57e-05
in methanol, 286.2 K	1.72e-05
in methanol, 289.49 K	1.95e-05
in methanol, 293.24 K	2.2e-05
in methanol, 296.6 K	2.49e-05
in methanol, 299.68 K	2.74e-05
in methanol, 302.78 K	3.03e-05
in methanol, 305.61 K	3.35e-05
in methanol, 308.45 K	3.66e-05
in methanol, 311.02 K	4e-05
in methanol, 313.77 K	4.37e-05
in methanol, 316.53 K	4.78e-05
in methanol, 319.02 K	5.2e-05
in methanol, 321.42 K	5.59e-05
in methanol, 323.48 K	5.95e-05

— BigSolDB 2.1
